Assay results from patent US20220047678A1, “Combination Therapy for Treatment of Liver Disease” (Gilead Sciences, Inc., priority 2020, published 2022).

Columns and labels:
[1] = Safety assessments (adverse events, laboratory abnormalities, vital signs) in 24-week open-label clinical study; type: in vivo, human
Text: This is a proof of concept, open-label study evaluating the safety, tolerability, and efficacy of monotherapy and combination regimens in subjects with NASH. Subjects meeting the study's entry criteria are randomly assigned in a 1:1:1:1:1 ratio to 1 of 5 treatment groups, with approximately 20 subjects in each group, as shown in the FIG. 2. Randomization is stratified by the presence or absence of type 2 diabetes mellitus, as determined by medical history or based on the Screening laboratory values if previously undiagnosed (hemoglobin A1c [HbA1c]≥6.5%). The study may last up to 35 weeks, which includes a 2-week Screening period, a 2 week Pre-Treatment period, up to a 24-week Treatment period, and a 7-week Follow-Up period.
Study drug dosing and administration is as follows, based on treatment group randomization as summarized in FIG. 2: • Treatment Group A: Semaglutide administered subcutaneously with pre-filled pen-injector once weekly. • Treatment Group B: Semaglutide administered subcutaneously with pre-filled pen-injector once weekly, one firsocostat 20 mg tablet, administered orally once daily without regard to food. • Treatment Group C: Semaglutide administered subcutaneously with pre-filled pen-injector once weekly, one cilofexor 30 mg tablet, administered orally once daily without regard to food. • Treatment Group D: Semaglutide administered subcutaneously with pre-filled pen-injector once weekly, one cilofexor 100 mg tablet, administered orally once daily without regard to food. • Treatment Group E: Semaglutide administered subcutaneously with pre-filled pen-injector once weekly, one firsocostat 20 mg tablet administered orally once daily and one cilofexor 30 mg tablet administered orally once daily, both without regard to food.
Semaglutide was administered by subcutaneous injection once weekly with a prefilled pen-injector and was initiated at a starting dose of […], which was increased at 4-week intervals (to 0.5 mg, 1.0 mg, and 1.7 mg) until the recommended target dose of 2.4 mg was reached (from week 17 onwards). Patients who could not tolerate the planned dose-escalation schedule were encouraged to extend any single dose step for a maximum of one additional week, and to re-attempt dose escalation to 2.4 mg at least once. Cilofexor and firsocostat were given orally once daily with or without food.
Safety assessments included adverse events, clinical laboratory assessments, vital signs, electrocardiograms (ECG), and physical examination. Clinical and laboratory adverse events were coded using the Medical Dictionary for Regulatory Activities (MedDRA), version 23.0.
Safety analyses were performed on the safety analysis set, which included all patients who took at least one dose of any study drug. Efficacy analyses were performed on the full analysis set (FAS), which included all randomized patients who received at least one dose of any study drug. Since all dosed subjects were randomized, these two analysis sets included the same patients.

[2] = Serum lipids, change from baseline to week 24; type: in vivo, human; conditions: LS mean
Description: In general, subjects fast (no food or drink, except water) for approximately 10 hours prior to the blood sample collection.
Additional tests include HIV-1 (reflex to HIV-1 RNA), HBV (HBsAg), HCV (reflex to HCV RNA) serology, homeostasis model assessment of Insulin resistance (HOMA-IR, based on fasting glucose and insulin), eGFR as calculated by MDRD, HbA1c, C-peptide, calcitonin, insulin, lipid panel, genomic sample collection, ELF™ Test, and FibroTest®. Biomarker tests include, but are not limited to C-reactive protein (CRP), NMR LipoProfile®, apolipoproteins, and adiponectin.
Imaging assessments (MRI-PDFF, liver stiffness by 2-D magnetic resonance elastography [MRE] and TE) were conducted at screening (or within 4 weeks prior to screening), and at weeks 12 and 24. TE was performed by experienced operators, and MRI-PDFF and MRE images were analyzed by a central reader as previously described [Patel et al. Hepatology. 2020; 72(1):58-71; Loomba et al. Gastroenterology. 2018; 155(5):1463-1473; Loomba et al. Hepatology. 2020 Nov. 10. doi: 10.1002/hep.31622]. Serum samples were collected at screening, baseline, and every 4 weeks through to week 24 for clinical laboratory values; blood biomarkers were assessed at screening, baseline, and weeks 12 and 24.
All protocol-defined, efficacy analyses were exploratory in nature and descriptive statistics are provided. Comparative analyses between combination regimens and semaglutide monotherapy were conducted post-hoc. For evaluation of changes from baseline to week 24, analysis of covariance (ANCOVA) with adjustment for baseline value and diabetes status was used, and least-squares (LS) means, LS mean differences, associated 95% confidence intervals (CI), and p-values were calculated. Proportions of binary responders were compared by Fisher's exact test.

With `CC[C@H](C)[C@H](NC(=O)[C@H](Cc1ccccc1)NC(=O)[C@H](CCC(=O)O)NC(=O)[C@H](CCCCNC(=O)COCCOCCNC(=O)COCCOCCNC(=O)CC[C@H](NC(=O)CCCCCCCCCCCCCCCCC(=O)O)C(=O)O)NC(=O)[C@H](C)NC(=O)[C@H](C)NC(=O)[C@H](CCC(N)=O)NC(=O)CNC(=O)[C@H](CCC(=O)O)NC(=O)[C@H](CC(C)C)NC(=O)[C@H](Cc1ccc(O)cc1)NC(=O)[C@H](CO)NC(=O)[C@H](CO)NC(=O)[C@@H](NC(=O)[C@H](CC(=O)O)NC(=O)[C@H](CO)NC(=O)[C@@H](NC(=O)[C@H](Cc1ccccc1)NC(=O)[C@@H](NC(=O)CNC(=O)[C@H](CCC(=O)O)NC(=O)C(C)(C)NC(=O)[C@@H](N)Cc1cnc[nH]1)[C@@H](C)O)[C@@H](C)O)C(C)C)C(=O)N[C@@H](C)C(=O)N[C@@H](Cc1c[nH]c2ccccc12)C(=O)N[C@@H](CC(C)C)C(=O)N[C@H](C(=O)N[C@@H](CCCNC(=N)N)C(=O)NCC(=O)N[C@@H](CCCNC(=N)N)C(=O)NCC(=O)O)C(C)C` [Semaglutide 2.4 mg, Semaglutide] as the compound, how does the Abdominal distension ([1]; human, in vivo) read?
The Abdominal distension was 0 n.

What about the Gastroenteritis ([1]; human, in vivo) of the same compound?
Its Gastroenteritis is 0 n.

And the Gastroesophageal reflux disease ([1]; human, in vivo)?
The Gastroesophageal reflux disease was 0 n.

What about the Hypoglycaemia ([1]; human, in vivo) of the same compound?
Its Hypoglycaemia is 0 n.

What about the “Laboratory abnormalities, Grade 3” value ([1]; human, in vivo) of the same compound?
Its value is 0 n.

What about the “Laboratory abnormalities, Grade 4” value ([1]; human, in vivo) of the same compound?
Its value is 0 n.

What about the “Pruritus (adverse event of interest)” value ([1]; human, in vivo) of the same compound?
Its value is 0 n.

And the “Serious adverse events (nature)” value ([1]; human, in vivo)?
Its value is “grade 3 diarrhea and vomiting”.

And the Death ([1]; patients)?
The Death was 0 n.

And the “HDL cholesterol, least squares mean change from baseline to week 24” value [2]?
The value was -1 mg/dL.

And the “LDL cholesterol, least squares mean change from baseline to week 24” value [2]?
Its value is -9 mg/dL.

What about the “Total cholesterol, least squares mean change from baseline to week 24” value [2] of the same compound?
Its value is -15 mg/dL.

What about the “Triglycerides, least squares mean change from baseline to week 24” value [2] of the same compound?
Its value is -28 mg/dL.

What about the “VLDL cholesterol, least squares mean change from baseline to week 24” value [2] of the same compound?
The value was -7 mg/dL.
